For series [1] the following is noted: literature; cited from earlier work.
Series [2] addresses T1, Dopamine beta hydroxylase (Homo sapiens, UniProt P09172).
T1 construct: 125 μl of plasma; tissue Instituto Português do Sangue Transplantação; host or cells: human plasma from healthy donors
T1 sequence (P09172 40-617 limits assumed): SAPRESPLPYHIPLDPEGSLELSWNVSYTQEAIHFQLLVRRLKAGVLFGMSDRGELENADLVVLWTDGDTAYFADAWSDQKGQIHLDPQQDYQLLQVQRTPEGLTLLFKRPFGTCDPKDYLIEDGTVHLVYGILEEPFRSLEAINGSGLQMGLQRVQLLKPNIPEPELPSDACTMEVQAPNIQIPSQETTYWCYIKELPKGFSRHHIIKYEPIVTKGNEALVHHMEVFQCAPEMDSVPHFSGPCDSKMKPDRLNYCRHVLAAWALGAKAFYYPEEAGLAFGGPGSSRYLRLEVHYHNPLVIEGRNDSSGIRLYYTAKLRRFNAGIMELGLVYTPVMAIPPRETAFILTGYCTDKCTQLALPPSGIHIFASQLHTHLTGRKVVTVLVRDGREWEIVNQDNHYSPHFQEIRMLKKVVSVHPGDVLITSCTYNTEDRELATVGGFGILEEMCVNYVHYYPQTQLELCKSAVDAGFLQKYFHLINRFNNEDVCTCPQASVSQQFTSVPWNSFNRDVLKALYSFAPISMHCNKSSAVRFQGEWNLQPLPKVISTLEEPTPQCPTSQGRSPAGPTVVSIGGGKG
Briefly: Dopamine beta hydroxylase activity in human plasma. In kind it is biochemical. The conditions noted are these: for Plasma (1 μM), activity in % of control: inhibitor 1 μM. The method, boiled down:
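Healthy-donor human plasma pre-incubated 10 min at 37° C with compound at final 10, 100 or 1000 nM in pH 5.0 acetate buffer with ascorbate, fumarate, pargyline, N-ethylmaleimide, catalase and copper sulfate. Tyramine substrate then added for 45 min; octopamine formed was isolated by SCX cartridge, periodate-converted and read at 330 nm; activity given as % control.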

The nature of series [3]: Evaluation of pharmacokinetic profile: plasma and brain concentrations after oral dosing. The format is in vivo, Wistar rats. The conditions noted are these: rat, 10 mg/kg po; for concentration at 1 h / concentration at 2 h: male, Wistar; for concentration at 1 h: 1 h post-dosing; for concentration at 2 h: 2 h post-dosing. As to the method: Adult male Wistar rats were kept under controlled environmental conditions (12 h light/dark cycle, room temperature 22±1° C. and humidity 50±5%, food and tap water ad libitum). On the day before the experiment, the animals were fasted. In experiments designed to evaluate the pharmacokinetic profile of Examples 56, 66, 199 and 232, rats (n=4) were administered orally (p.o.) with examples 56, 66, 199 and 232 (10 mg/kg/4 mL; vehicle: 40% kleptose) and plasma and brain samples were collected from anaesthetized animals at 1 and 2 h post-dosing. Animals were anaesthetized by intraperitoneal administration of sodium pentobarbital (60 mg/kg). Blood was collected from cardiac punction into heparinised tubes and kept on ice until centrifugation at 1,500 g for 15 min at 4° C. Plasma and brain samples were stored at less than −20° C. until analysis.
After thawing, 200 μL of acetonitrile 0.1% formic acid was added to 100 μL of plasma. The samples were vortexed and centrifuged for 10 min at 10 000 g. Supernatant was filtered and injected into a mass spectrometer.
After thawing and weighing, water was added to the brain to give a tissue concentration of […]. The samples were then homogenized using a Heidolph DIAX 900 mixer and transferred to plastic tubes. Following centrifugation at 10 000 g for 20 min, supernatant was taken and treated as described for plasma.

For series [4], the system named is DβH. The conditions noted are these: Stanley et al., Br. J. Pharmacol. 1997; cited from earlier work.
In series [5] the target is T2, DβH (Homo sapiens, UniProt P09172).
T2 construct: cellular homogenate (75 μg total protein); host or cells: SK-N-SH cells (homogenate)
T2 sequence (P09172 1-617): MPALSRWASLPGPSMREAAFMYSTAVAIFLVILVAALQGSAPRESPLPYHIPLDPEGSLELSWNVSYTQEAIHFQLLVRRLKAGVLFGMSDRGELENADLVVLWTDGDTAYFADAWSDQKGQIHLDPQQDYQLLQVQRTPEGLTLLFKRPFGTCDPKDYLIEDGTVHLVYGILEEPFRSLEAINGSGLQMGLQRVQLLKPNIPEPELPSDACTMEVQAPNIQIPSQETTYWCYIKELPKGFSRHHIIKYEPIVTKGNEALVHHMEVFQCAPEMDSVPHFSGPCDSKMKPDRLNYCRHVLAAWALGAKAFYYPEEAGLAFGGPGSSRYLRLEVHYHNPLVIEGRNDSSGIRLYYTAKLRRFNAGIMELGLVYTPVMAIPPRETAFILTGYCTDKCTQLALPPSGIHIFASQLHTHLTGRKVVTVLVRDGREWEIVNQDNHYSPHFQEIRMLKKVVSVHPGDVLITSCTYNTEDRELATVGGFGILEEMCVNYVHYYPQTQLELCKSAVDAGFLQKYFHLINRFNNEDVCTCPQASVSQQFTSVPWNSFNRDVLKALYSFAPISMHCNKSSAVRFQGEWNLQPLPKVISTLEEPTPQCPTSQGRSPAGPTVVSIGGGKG
The experiment in a line: DβH inhibition assay in SK-N-SH cellular homogenates (tyramine to octopamine). In kind it is biochemical. The conditions noted are these: SK-N-SH cell homogenate.

[6] abbreviates: brain, read-out: Cbr (ng/g) at 1 h.
[7] abbreviates: brain, read-out: Cbr (ng/g) at 2 h.
Setting [8] is: plasma, read-out: Cpl (ng/mL) at 1 h.
The mark [9] stands for this setting: plasma, read-out: Cpl (ng/mL) at 2 h.

The term IC50 denotes the concentration needed to halve the response being measured.

Where two headings read alike, the source gives them in different places. Marks after values point to notes of the source that are not given here.

With `CCN(CC)C(=S)SSC(=S)N(CC)CC` [disulfiram], in series [1], the toxic side effects result was “toxic side effects”.

Take `Cl.Fc1cc(F)c(F)c([C@H]2Cc3c(CCN4CCOCC4)[nH]c(=S)n3C2)c1F` [Example 199, (R)-1-(2-morpholinoethyl)-6-(2,3,5,6-tetrafluorophenyl)-2,5,6,7-tetrahydro-3H-pyrrolo[1,2-c]imidazole-3-thione Hydrochloride]: the “Plasma (0.01 μM), activity in % of control” value in series [2] (inhibitor 0.01 μM) is given as 27.4 % of control. Moreover, the “Plasma (0.01 μM), activity in % of control, re-test (asterisked)” value in series [2] (inhibitor 0.01 μM, re-tested under the same experimental conditions, asterisked data believed to be correct) is listed as 119.3* % of control. Further, the “Plasma (0.1 μM), activity in % of control” value in series [2] (inhibitor 0.1 μM) is 0.6 % of control. In addition, in series [2] (inhibitor 0.1 μM, re-tested under the same experimental conditions, asterisked data believed to be correct), the “Plasma (0.1 μM), activity in % of control, re-test (asterisked)” value is recorded as 84.9* % of control. Moreover, the concentration at 1 h came out at 45 ng/g in series [3] (setting [6]) and 1640 ng/mL in series [3] (setting [8]). The concentration at 2 h is 0 ng/g in series [3] (setting [7]) and 777 ng/mL in series [3] (setting [9]). Besides, in series [3], the “peripheral selectivity (exposure in plasma compared to brain)” value (shortened to “peripheral selectivity”) was “peripherally selective”.

As for `NCc1c[nH]c(=S)n1[C@H]1CCc2c(F)cc(F)cc2C1` [nepicastat], the “crossing of the BBB” value in series [1] is “cross the BBB”. The 50% inhibitory concentration (IC50) in the series with DβH [4] was 9 nM.

In the case of `NC(=O)Cc1[nH]c(=S)n2c1[C@@H]1C[C@]1(c1cc(Cl)ccc1F)C2` [Example 56], the “Plasma (0.1 μM), activity in % of control” value in series [2] (inhibitor 0.1 μM) was 38.5 % of control. Further, in series [2], the “Plasma (1 μM), activity in % of control” value is on record as 5.5 % of control. Also, the “SKNSH (0.1 μM), activity in % of control” value on DβH [5] (inhibitor 0.1 μM) was 45.6 % of control. Also, the “SKNSH (1 μM), activity in % of control” value at DβH [5] (inhibitor 1 μM) is recorded as 5.2 % of control. Also, the concentration at 1 h in series [3] (setting [6]) came out at 20 ng/g; in series [3] (setting [8]), 1500 ng/mL. Moreover, the figures for the concentration at 2 h in series [3] (setting [7]) and in series [3] (setting [9]) were 21 ng/g and 1130 ng/mL, respectively. Further, the “peripheral selectivity” value in series [3] is listed as “peripherally selective”.

For `Cn1c(CC(=O)N[C@@H]2CCOC2)c2n(c1=S)C[C@H](c1c(F)ccc(Br)c1F)C2` [Example 232, 2-((S)-6-(3-bromo-2,6-difluorophenyl)-2-methyl-3-thioxo-2,5,6,7-tetrahydro-3H-pyrrolo[1,2-c]imidazol-1-yl)-N—((R)-tetrahydrofuran-3-yl)acetamide], in series [2] (inhibitor 0.01 μM), the “Plasma (0.01 μM), activity in % of control” value was 48.8 % of control. Further, the “Plasma (0.1 μM), activity in % of control” value in series [2] (inhibitor 0.1 μM) is reported as 6.4 % of control. Moreover, the values for the concentration at 1 h in series [3] (setting [6]) and in series [3] (setting [8]) were 24 ng/g and 1710 ng/mL, respectively. Besides, the concentration at 2 h was 46 ng/g in series [3] (setting [7]) and 1310 ng/mL in series [3] (setting [9]). In addition, in series [3], the “peripheral selectivity” value is “peripherally selective”.

Turning to `CCCCc1ccc(C(=O)O)nc1` [fusaric acid], the toxic side effects result in series [1] is “toxic side effects”.

As for `O=C(Cc1[nH]c(=S)n2c1[C@@H]1C[C@]1(c1cc(Cl)ccc1F)C2)N1CCOCC1` [Example 66, 2-((5aS,6aR)-5a-(5-chloro-2-fluorophenyl)-3-thioxo-2,3,5,5a,6,6a-hexahydrocyclopropa[3,4]pyrrolo[1,2-c]imidazol-1-yl)-1-morpholinoethan-1-one], the “Plasma (0.1 μM), activity in % of control” value in series [2] (inhibitor 0.1 μM) was 52.3 % of control. The “Plasma (1 μM), activity in % of control” value in series [2] is reported as 6.4 % of control. In addition, the concentration at 1 h stood at 0 ng/g in series [3] (setting [6]) and 779 ng/mL in series [3] (setting [8]). Besides, the results for the concentration at 2 h in series [3] (setting [7]) and in series [3] (setting [9]) were 0 ng/g and 429 ng/mL, respectively. The “peripheral selectivity” value in series [3] is recorded as “peripherally selective”.

`CCN(CC)C(=S)S` [diethyldithiocarbamate]: in series [1], the toxic side effects result is reported as “toxic side effects”.

These data come from US11434242B2, “Dopamine-b-hydroxylase inhibitors” (BIAL-PORTELA & Cª, S.A., priority 2017, dated 2022).
